Measured values from patent US9757408B2 (Hayashibara Co., Ltd., priority 2010, dated 2017).
Marks after values point to notes of the source that are not given here.

Tests used:
[1] = test system: mice with concanavalin A (Con A) induced liver disorder; experiment: Concanavalin A induced liver disorder mice: GPT, GOT, liver necrosis score (Experiment 12); assay type: in vivo, BALB/c mice; parameters: Liver function GPT / Liver function GOT: unit not given here; details: Con A 15 mg/kg i.v.; for Liver function GOT / Liver function GPT: serum 20 hours after Con A; for Conditions of liver tissue, Necrosis (average score): grades mild (1), moderate (2), severe (3)
Description: “TYPE IV”, a Con A specimen commercialized by Sigma-Aldrich Corporation, St. Louis, Mo. USA, was dissolved in physiological saline and intravenously administered to all the five mice in each six groups at a dose of 15 mg/0.2 mL. […] The five mice in the remaining one group as a control were intravenously administered with 0.2 mL/head of physiological saline, simultaneously with Con A (Experiment group 1).
For the mice in each group, they were collected blood at 20 hours after administering Con A, followed by assaying the activity of GPT and GOT in their sera with “TRANSAMINASE CII-TEST WAKO”, a commercialized assay kit produced by Wako Pure Chemical Industries Ltd., Tokyo, Japan, for use as an index for liver disorder due to hepatitis. […] The tissue specimens were stained with hematoxylin-eosin staining, followed by calculating an average of scores for judgement on the conditions of necrosis of liver tissues by microscopic observation, for use as an index for liver disorder. The results are in Table 12 in parallel. The conditions of necrosis of liver tissues were evaluated based on a microscopic observation standard of three grades of “mild (1)”, “moderate (2)”, and “severe (3)” and scored before determining the average for each group.

KK-Ay mice = KK-Ay mice kidney inflammation: body weight, kidney ratio, blood glucose, HbA1c, renal glomerulus consolidation (Experiment 14); assay type: in vivo; details: 10 weeks; for Percentage of subject with renal glomerulus solidification (++): (++) = at least 50% consolidation; for Blood glucose level: fasted 16 hours
Source text: Fifty KK-Ay mice, 5-week-old, male, commercialized by Japan Crea Co., Tokyo, Japan, were preliminary bred for one week on CE-2 feed commercialized by Japan Crea Co., Tokyo, Japan, measured for body weight and blood glucose level in blood samples collected from their tail veins, and randomly grouped into five groups, ten heads each, after balancing each measured value. One of the five groups was made into a control group and the mice of the group were allowed to take water freely and bred for 10 weeks (Experiment group 1). […] Throughout the periods of preliminary breeding and testing, the mice were bred while freely allowing them to take CE-2 feed at 22±2° C. under a light-dark cycle of 12 hours (lighting: from 7:00 to 19:00). At the termination of the test, the mice were evaluated based on their body weight, weight ratio of kidney, blood glucose level, hemoglobin A1c (HbA1c), and pathological findings of renal disorder by autopsy, and the percentage of mice with at least 50% consolidation (++) of renal glomerulus against the total glomus is shown in Table 15. The weight ratio of kidney was determined by dividing the weight of kidney by the body weight. The blood glucose level, HbA1c, and denatured score of renal glomerulus were determined by the following method.
At the termination of the test, the mice were fasted for 16 hours prior to autopsy and collected blood from their postcava for measurement of fasting glucose level. The blood glucose level was determined by “GLUCOSE CII-TEST WAKO”, a product name of a commercialized reagent for blood glucose level commercialized by Wako Pure Chemical Industries Ltd., Tokyo, Japan.
At the termination of the test, the mice were fasted for 16 hours before autopsy and collected blood from their postcava for measurement of interdigestive HbA1c level. The measurement was asked FALCO biosystems Ltd., Kyoto, Japan, a privately-owned clinical inspection institute.
At the autopsy, each mouse was collected his kidney which was then fixed with neutral buffered formalin, prepared into a pathologic tissue section in usual manner, and stained with hematoxylin-eosin staining (H-E staining) and PAS staining. For the stained pathologic tissue section of each mouse, they were compared with that of the control and the pathological findings by microscopic observation were judged based on the following criteria and scored for an index of the denaturation of renal disorder.
The degree of renal disorder was judged based on the degree of consolidation of renal glomerulus: The degree was judged based on the four grades; (++), meaning that at least 50% consolidation of renal glomerulus is observed against the total glomus; (+), meaning that at least 25% but below 50% consolidation of renal glomerulus is observed against the total glomus; (±), meaning that less than 25% consolidation of renal glomerulus is observed against the total glomus; and (−), meaning that no consolidation of renal glomerulus is observed against the total glomus. The pathological findings of kidney was judged based on an evaluation criterion for pathologic tissue (see, for example, the lines 12 to 21 at page 862 of “American Journal of Pathology”, Vol. 160, No. 3, pp. 861-867, 2002, by Andrea Hartner et al.).

[2] = test system: IL-1α production from NHEK cells; experiment: IL-1α production from NHEK cells irradiated with ultraviolet B (Experiment 17); assay type: cell-based, human; details: for IL-1α: NHEK cells, stimulation by ultraviolet rays; for production of IL-1α from NHEK cells augmented by ultraviolet rays: UVB 40 mJ/cm^2, supernatant at six hours
Description: “CELLMATRIX TYPE IV”, a product name of collagen for tissue culture commercialized by Nitta Gelatin Inc., Osaka, Japan, which had been diluted with PBS(K-) by 10 times, was previously placed in “FALCON 35-3001”, a product name of 35 mm petri dish commercialized by Becton Dickinson and Company, NJ, USA, in an amount of 1 mL/plate, and then allowed to stand at ambient temperature for 10 min, followed by removing an excessive amount of CELLMATRIX, drying the petri dish in air, and washing it thrice with PBS(K-). […] The cells were cultured at 37° C. in a 5% v/v CO2 incubator. On the 2nd and 4th days after the cell inoculation, the medium was replaced with EpiLife medium free of EDGS (1 mL/plate). On the 5th day after the cell inoculation, the supernatant was removed, and the petri dish was washed twice by adding 1 mL/petri dish of Hanks' balanced salt solution (called “HBSS (−) buffer”, hereinafter). Further, 2 mL/petri dish of HBSS (−) buffer was added to the petri dish which was then placed in the position 15 cm apart from an ultraviolet ray light source and irradiated with 40 mJ/cm^2 of ultraviolet B radiation. […] As an ultraviolet ray light source, “NS-8F”, a light source for actual use commercialized by Sanwa Medical Co., Ltd., Okayama, Japan, equipped with an ultraviolet B radiation lamp was used, and the radiation dose was measured on “UVR-305/365D (II)”, an ultraviolet ray meter commercialized by Topcon Corporation, Tokyo, Japan. TNF-α was assayed by the same method as in Experiment 2. The remaining other cytokines were assayed with an IL-1α assay kit, commercialized by R & D Systems Inc., MN, USA, and an IL-8 assay kit commercialized by BioLegend, CA, USA.

[3] = test system: IL-6 production from mouse intraperitoneal macrophages; experiment: IC50 for IL-6 production from mouse macrophages, LPS + IFN-γ (Experiment 19); assay type: cell-based; details: for IC50: Mus musculus, Macrophage, 20 h, read-out: IC50 Concentration IL-6
Source text: After completion of the culture, the supernatant in each well was collected and assayed for cytokines and prostaglandin E2 (called “PGE2”, hereinafter) with ELISA.

| SMILES | IL-1α ([2]; 1 μM) [pg/mL] | IL-1α ([2]; 5 μM) [pg/mL] | IL-1α ([2]; 10 μM) [pg/mL] | production of IL-1α from NHEK cells augmented by ultraviolet rays [2] | IC50 [3] [µM] | Liver function GOT ([1]; 127 mg/kg i.v. simultaneously) | Liver function GPT ([1]; 127 mg/kg i.v. simultaneously) | Conditions of liver tissue, Necrosis (average score) ([1]; 127 mg/kg i.v.) | HbA1c value (KK-Ay mice; 94 mg/kg body weight/day) [%] | Percentage of subject with renal glomerulus solidification (++) (KK-Ay mice; 94 mg/kg body weight/day) [%] | Blood glucose level (KK-Ay mice; 94 mg/kg body weight/day) [mg/dL] | further results |
| --- | --- | --- | --- | --- | --- | --- | --- | --- | --- | --- | --- | --- |
| Nc1c2ncn([C@@H]3O[C@H](CO)[C@@H](O)[C@H]3O)c2nc[n+]1[O-] [ANO, adenosine N1-oxide] | 203 | 173 | 140 | inhibited | 0.9 |  |  |  |  |  |  | Liver function GOT ([1]; 45 mg/kg i.v. simultaneously): 2941++; Liver function GPT ([1]; 45 mg/kg i.v. simultaneously): 1477*; Conditions of liver tissue, Necrosis (average score) ([1]; 45 mg/kg i.v.): 2.4; Liver function GOT ([1]; 75 mg/kg i.v. simultaneously): 2654**; Liver function GPT ([1]; 75 mg/kg i.v. simultaneously): 1229*; Liver function GOT ([1]; 135 mg/kg i.v. simultaneously): 1343**; Liver function GPT ([1]; 135 mg/kg i.v. simultaneously): 687**; Conditions of liver tissue, Necrosis (average score) ([1]; 135 mg/kg i.v.): 2.0; HbA1c value (KK-Ay mice; 30 mg/kg body weight/day): 6.79%; Percentage of subject with renal glomerulus solidification (++) (KK-Ay mice; 30 mg/kg body weight/day): 50%; Blood glucose level (KK-Ay mice; 30 mg/kg body weight/day): 304 mg/dL; HbA1c value (KK-Ay mice; 100 mg/kg body weight/day, 100 mg/kg/day): 5.40* %; Percentage of subject with renal glomerulus solidification (++) (KK-Ay mice; 100 mg/kg body weight/day): 30%; Blood glucose level (KK-Ay mice; 100 mg/kg body weight/day): 305 mg/dL; HbA1c value (KK-Ay mice; 100 mg/kg body weight/day, listed as adenosine N1-oxide, 100 mg/kg/day): 5.40%; inhibition of the production of IL-6 (in words) ([3]; mouse intraperitoneal macrophages stimulated with LPS and IFN-γ): strongly inhibited |
| OC[C@H]1O[C@@H](n2cnc3c(O)ncnc32)[C@H](O)[C@@H]1O [IN, inosine] | 246 | 243 | 228 | did not influence |  | 5243 | 2061 | 2.6 | 6.55 | 80 | 340 | IC50 Concentration IL-6 ([3]; mouse macrophages, LPS and IFN-γ, 20 hours): Enhanced |
| Nc1ncnc2c1ncn2[C@@H]1O[C@H](CO)[C@@H](O)[C@H]1O [AN, adenosine] | 243 | 244 | 239 | did not influence | 50.1 | 4130* | 1917 | 2.5 | 6.72 | 100 | 342 |  |
